{"source": "ChEMBL document CHEMBL2218064", "about": "“Structure-activity relationship data for chemical series of antagonists of the P2X7 receptor (Supplementary Bioactivity Data for publication CHEMBL1157114)”", "molecular_target": "T1, P2X purinoceptor 7 (Homo sapiens, UniProt Q99572)", "T1 sequence (Q99572 whole entry)": "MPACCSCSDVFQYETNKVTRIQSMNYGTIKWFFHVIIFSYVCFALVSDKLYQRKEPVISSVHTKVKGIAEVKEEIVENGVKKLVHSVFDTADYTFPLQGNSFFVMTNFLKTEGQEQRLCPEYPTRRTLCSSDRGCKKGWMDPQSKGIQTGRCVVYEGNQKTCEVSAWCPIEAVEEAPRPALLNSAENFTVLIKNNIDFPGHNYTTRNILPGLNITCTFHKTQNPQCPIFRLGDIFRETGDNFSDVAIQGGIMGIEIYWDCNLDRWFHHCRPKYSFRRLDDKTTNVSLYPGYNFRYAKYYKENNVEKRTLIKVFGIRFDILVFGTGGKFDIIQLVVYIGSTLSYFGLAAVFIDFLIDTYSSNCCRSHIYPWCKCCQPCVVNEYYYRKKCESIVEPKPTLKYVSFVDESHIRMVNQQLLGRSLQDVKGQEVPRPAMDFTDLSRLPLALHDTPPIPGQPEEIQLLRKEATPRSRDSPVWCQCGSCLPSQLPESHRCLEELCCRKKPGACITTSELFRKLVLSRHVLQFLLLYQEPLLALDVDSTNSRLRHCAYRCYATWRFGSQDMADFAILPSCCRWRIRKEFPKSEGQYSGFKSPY", "assay": "SUPPLEMENTARY: Inhibition of human P2X7 receptor assessed as inhibition of ethidium bromide accumulation. Same assay as CHEMBL1103860"}
{"smiles": "O=C(NCc1ccc(Cl)cc1Cl)C1CC(=O)N(Cc2ccccc2)C1", "note": "(configuration not stated)", "values": [{"measurement": "IC50", "value": 158, "unit": "nM"}]}
{"smiles": "CCN1C(=O)CC[C@@H]1C(=O)NCc1c(Cl)cccc1Cl", "values": [{"measurement": "IC50", "value": 631, "unit": "nM"}]}
{"smiles": "CC(C)CN1CC(C(=O)NCc2ccc(Cl)cc2Cl)CC1=O", "note": "(configuration not stated)", "values": [{"measurement": "IC50", "value": 79.4, "unit": "nM"}]}
{"smiles": "Cc1c(Cl)cccc1CNC(=O)[C@@H]1CCC(=O)N1C", "values": [{"measurement": "IC50", "value": 15.8, "unit": "nM"}]}
{"smiles": "CN1C(=O)CC[C@H]1C(=O)NCc1cccc(C(F)(F)F)c1F", "values": [{"measurement": "IC50", "value": 25.1, "unit": "nM"}]}
{"smiles": "CN1C(=O)CC[C@H]1C(=O)NCc1cccc(Cl)c1F", "values": [{"measurement": "IC50", "value": 126, "unit": "nM"}]}
{"smiles": "CCN1C(=O)c2ccccc2C1C(=O)NCc1ccc(Cl)cc1Cl", "note": "(configuration not stated)", "values": [{"measurement": "IC50", "value": 398, "unit": "nM"}]}
{"smiles": "CCN1C(=O)c2ccccc2C1C(=O)NCc1cccc(C(F)(F)F)c1Cl", "note": "(configuration not stated)", "values": [{"measurement": "IC50", "value": 79.4, "unit": "nM"}]}
{"smiles": "CN1C(=O)c2ccccc2C1C(=O)NCc1ccc(Cl)cc1Cl", "note": "(configuration not stated)", "values": [{"measurement": "IC50", "value": 126, "unit": "nM"}]}
{"smiles": "CN1C(=O)c2ccccc2C1C(=O)NCc1ccc(F)cc1Cl", "note": "(configuration not stated)", "values": [{"measurement": "IC50", "value": 316, "unit": "nM"}]}
{"smiles": "CN1C(=O)c2ccccc2C1C(=O)NCc1cccc(C(F)(F)F)c1Cl", "note": "(configuration not stated)", "values": [{"measurement": "IC50", "value": 15.8, "unit": "nM"}]}
{"smiles": "CCN1C(=O)CCC1(C)C(=O)NCc1ccc(Cl)cc1Cl", "note": "(configuration not stated)", "values": [{"measurement": "IC50", "value": 100, "unit": "nM"}]}
{"smiles": "CC1(C(=O)NCc2ccc(Cl)cc2Cl)CCC(=O)N1C1CC1", "note": "(configuration not stated)", "values": [{"measurement": "IC50", "value": 10, "unit": "nM"}]}
{"smiles": "O=C(NCc1ccc(Cl)cc1Cl)C1CCC(=O)N1C1CC1", "note": "(configuration not stated)", "values": [{"measurement": "IC50", "value": 3.16, "unit": "nM"}]}
{"smiles": "CC(C)N1C(=O)CCC1(C)C(=O)NCc1ccc(Cl)cc1Cl", "note": "(configuration not stated)", "values": [{"measurement": "IC50", "value": 200, "unit": "nM"}]}
{"smiles": "CCN1C(=O)CC[C@@H]1C(=O)NCc1cccc(C(F)(F)F)c1F", "values": [{"measurement": "IC50", "value": 158, "unit": "nM"}]}
{"smiles": "CCN1C(=O)CC[C@@H]1C(=O)NCc1ccc(F)cc1C(F)(F)F", "values": [{"measurement": "IC50", "value": 200, "unit": "nM"}]}
{"smiles": "CCN1C(=O)CC[C@@H]1C(=O)NCc1cccc(Cl)c1F", "values": [{"measurement": "IC50", "value": 794, "unit": "nM"}]}
{"smiles": "CCN1C(=O)CC[C@@H]1C(=O)NCc1ccc(F)c(F)c1Cl", "values": [{"measurement": "IC50", "value": 200, "unit": "nM"}]}
{"smiles": "CCN1C(=O)CC[C@@H]1C(=O)NCc1ccc(Cl)cc1C", "values": [{"measurement": "IC50", "value": 126, "unit": "nM"}]}
{"smiles": "CN1C(=O)CC[C@@H]1C(=O)NCc1ccc(F)cc1C(F)(F)F", "values": [{"measurement": "IC50", "value": 251, "unit": "nM"}]}
{"smiles": "CN1C(=O)CC[C@@H]1C(=O)NCc1cccc(Cl)c1Cl", "values": [{"measurement": "IC50", "value": 63.1, "unit": "nM"}]}
{"smiles": "O=C(NCc1ccc(F)cc1Cl)C1CCC(=O)N1C1CC1", "note": "(configuration not stated)", "values": [{"measurement": "IC50", "value": 20, "unit": "nM"}]}
{"smiles": "O=C(NCc1ccc(F)cc1Cl)C1CC(=O)N(C2CC2)C1", "note": "(configuration not stated)", "values": [{"measurement": "IC50", "value": 501, "unit": "nM"}]}
{"smiles": "CN1C(=O)CC[C@@H]1C(=O)NCc1cccc(C(F)(F)F)c1Cl", "values": [{"measurement": "IC50", "value": 15.8, "unit": "nM"}]}
{"smiles": "Cc1c(Cl)cccc1CNC(=O)[C@H]1CCC(=O)N1C", "values": [{"measurement": "IC50", "value": 100, "unit": "nM"}]}
{"smiles": "CC1=CC(=O)N(C2CC2)C1C(=O)NCc1ccc(Cl)cc1Cl", "note": "(configuration not stated)", "values": [{"measurement": "IC50", "value": 631, "unit": "nM"}]}
{"smiles": "Cc1c(CNC(=O)[C@@H]2CCC(=O)N2C)cccc1C(F)(F)F", "values": [{"measurement": "IC50", "value": 3.16, "unit": "nM"}]}
{"smiles": "CN1C(=O)CC[C@H]1C(=O)NCc1ccc(F)cc1Br", "values": [{"measurement": "IC50", "value": 39.8, "unit": "nM"}]}
{"smiles": "CN1C(=O)CC[C@H]1C(=O)NCc1cccc(F)c1C(F)(F)F", "values": [{"measurement": "IC50", "value": 200, "unit": "nM"}]}
{"smiles": "CCN1C(=O)CC[C@H]1C(=O)NCc1ccc(F)c(Cl)c1Cl", "values": [{"measurement": "IC50", "value": 3.16, "unit": "nM"}]}
{"smiles": "O=C(NCc1cccc(C(F)(F)F)c1Cl)C1CCC(=O)N1C1CC1", "note": "(configuration not stated)", "values": [{"measurement": "IC50", "value": 1.26, "unit": "nM"}]}
{"smiles": "CN1C(=O)CC[C@@H]1C(=O)NCc1cccc(C(F)(F)F)c1F", "values": [{"measurement": "IC50", "value": 200, "unit": "nM"}]}
{"smiles": "Cc1cc(Cl)cc(Cl)c1CNC(=O)[C@@H]1CCC(=O)N1C", "values": [{"measurement": "IC50", "value": 1.26, "unit": "nM"}]}
{"smiles": "CN1C(=O)CC[C@H]1C(=O)NCc1cccc2ccccc12", "values": [{"measurement": "IC50", "value": 1.58, "unit": "nM"}]}
{"smiles": "CN1C(=O)CC[C@H]1C(=O)NCc1ccc(F)c(F)c1Cl", "values": [{"measurement": "IC50", "value": 39.8, "unit": "nM"}]}
{"smiles": "CCN1C(=O)C(C)(C)CC1C(=O)NCc1ccc(Cl)cc1Cl", "note": "(configuration not stated)", "values": [{"measurement": "IC50", "value": 25.1, "unit": "nM"}]}
{"smiles": "O=C(NCc1cccc(C(F)(F)F)c1Cl)[C@H]1CCC(=O)N1Cc1ccccc1", "values": [{"measurement": "IC50", "value": 31.6, "unit": "nM"}]}
{"smiles": "CC(C)(C)CN1C(=O)CC[C@H]1C(=O)NCc1cccc(C(F)(F)F)c1Cl", "values": [{"measurement": "IC50", "value": 25.1, "unit": "nM"}]}
{"smiles": "O=C(NCc1cccc(C(F)(F)F)c1Cl)[C@H]1CCC(=O)N1C1CCCC1", "values": [{"measurement": "IC50", "value": 100, "unit": "nM"}]}
{"smiles": "CN1C(=O)CC(C)(C)C1C(=O)NCc1cccc(C(F)(F)F)c1Cl", "note": "(configuration not stated)", "values": [{"measurement": "IC50", "value": 100, "unit": "nM"}]}
{"smiles": "CCC(C)N1C(=O)CC[C@@H]1C(=O)NCc1cccc(C(F)(F)F)c1Cl", "note": "(some centres not stated)", "values": [{"measurement": "IC50", "value": 63.1, "unit": "nM"}]}
